Patent publication US20250003877A1, “Silyl Bridged Dyes” (priority 2021, published 2025)
Read-outs that look alike come from different tables or passages of the source.

Conditions: for ϕ (quantum yield): pH 7.4
[1] = spirolactone dyes, table title says PBS, text (b560-b564) says maximal ε when ring-opened in EtOH/0.1% TFA
[2] = spirolactone dyes, ϕ in PBS × ε in EtOH/0.1% TFA

Row | SMILES | Brightness (ϕ × ε) (PBS) | Em (nm) (PBS) | Ex (nm) (PBS) | ε (M^−1 cm^−1) (PBS) | ϕ (quantum yield) (PBS) | ε (M^−1 cm^−1) [1] | extinction coefficient (maximum) in EtOH/0.1% TFA (EtOH/0.1% TFA) | Brightness (ϕ × ε) [2] | overall brightness (ϕ in PBS × ε in EtOH/0.1% TFA) | quantum yield (EtOH/0.1% TFA, mix of two isomers) | extinction coefficient (measured in PBS, mix of two isomers) | emission (mix of two isomers) | excitation wavelength (mix of two isomers)
1 | Cc1ccccc1C1=C2C=CC(=[N+]3CCC3)C=C2[Si](c2ccccc2)(c2ccccc2)c2cc(N3CCC3)ccc21 [Compound 025, 1-(7-(Azetidin-1-yl)-5,5-diphenyl-10-(o-tolyl)dibenzo[b,e]silin-3(5H)-ylidene)azetidin-1-ium] | 63,222 | 680 nm | 663 nm | 154,200 M^−1 cm^−1 | 0.41 |  |  |  |  |  |  |  | 
2 | C=C[Si]1(C=C)c2cc3c(cc2C(c2ccccc2C)=c2cc4c(cc21)=[N+](C)CC4)CCN3C [Compound 021, 1,9-Dimethyl-5-(o-tolyl)-11,11-divinyl-2,3,7,8,9,11-hexahydrosilino[3,2-f:5,6-f]diindol-1-ium] | 17,693 | 728 nm | 702 nm | 136,100 M^−1 cm^−1 | 0.13 |  |  |  |  |  |  |  | 
3 | CCOC(=O)CSCCC[Si@]1(C)c2cc(N(C)C)ccc2[C@@]2(OC(=O)c3ccccc32)c2ccc(N(C)C)cc21 [Compound 043, Ethyl 2-((3-((5r,10r)-3,7-bis(dimethylamino)-5-methyl-3′-oxo-3′H,5H-spiro[dibenzo[b,e]siline-10,1′-isobenzofuran]-5-yl)propyl)thio)acetate] |  | 665 nm | 646 nm |  | 0.45 | 150,700 M^−1 cm^−1 |  |  |  |  |  |  | 
4 | CN(C)c1ccc2c(c1)[Si@](C)(CCCI)c1cc(N(C)C)ccc1[C@]21OC(=O)c2ccccc21 [Compound 047, (5s,10s)-3,7-Bis(dimethylamino)-5-(3-iodopropyl)-5-methyl-3′H,5H-spiro[dibenzo[b,e]siline-10,1′-isobenzofuran]-3′-one] |  | 665 nm | 645 nm |  | 0.43 | 115,000 M^−1 cm^−1 |  |  |  |  |  |  | 
5 | Cc1ccccc1C1=C2C=CC(=[N+](C)C)C=C2[Si](C)(c2ccccc2)c2cc(N(C)C)ccc21 (stereo not shown) [Compound 004, N-(7-(Dimethylamino)-5-methyl-5-phenyl-10-(o-tolyl)dibenzo[b,e]silin-3(5H)-ylidene)-N-methylmethanaminium] | 34,203 | 670 nm | 657 nm | 99,140 M^−1 cm^−1 | 0.35 |  |  |  |  |  |  |  | 
6 | COc1cccc(OC)c1C1=C2C=CC(=[N+]3CCC3)C=C2[Si](C)(CCCCl)c2cc(N3CCC3)ccc21 (stereo not shown) [Compound 029, 1-(7-(Azetidin-1-yl)-5-(3-chloropropyl)-10-(2,6-dimethoxyphenyl)-5-methyldibenzo[b,e]silin-3(5H)-ylidene)azetidin-1-ium] | 86,400 | 670 nm | 653 nm | 180,000 M^−1 cm^−1 | 0.48 |  |  |  |  |  |  |  | 
7 | Cc1ccccc1C1=C2C=CC(=[N+](C)C)C=C2[Si](C)(CCC(F)(F)F)c2cc(N(C)C)ccc21 (stereo not shown) [Compound 010, N-(7-(Dimethylamino)-5-methyl-10-(o-tolyl)-5-(3,3,3-trifluoropropyl)dibenzo[b,e]silin-3(5H)-ylidene)-N-methylmethanaminium] | 39,854 | 666 nm | 650 nm | 112,900 M^−1 cm^−1 | 0.35 |  |  |  |  |  |  |  | 
8 | Cc1ccccc1C1=c2cc3c(cc2[Si](c2ccccc2)(c2ccccc2)c2cc4c(cc21)CCN4C)=[N+](C)CC3 [Compound 022, 1,9-Dimethyl-11,11-diphenyl-5-(o-tolyl)-2,3,7,8,9,11-hexahydrosilino[3,2-f:5,6-f′]diindol-1-ium] | 12,870 | 737 nm | 710 nm | 117,000 M^−1 cm^−1 | 0.11 |  |  |  |  |  |  |  | 
9 | C[Si@]1(CCCCl)c2cc(N3CCC3)ccc2[C@]2(OC(=O)c3ccccc32)c2ccc(N3CCC3)cc21 [Compound 036, (5r,10r)-3,7-Di(azetidin-1-yl)-5-(3-chloropropyl)-5-methyl-3′H,5H-spiro[dibenzo[b,e]siline-10,1′-isobenzofuran]-3′-one] |  | 666 nm | 648 nm |  | 0.53 | 213,200 M^−1 cm^−1 |  |  |  |  |  |  | 
10 | Cc1ccccc1C1=C2C=CC(=[N+](C)C)C=C2[Si](C)([C@H]2CC3C=CC2C3)c2cc(N(C)C)ccc21 (stereo partly drawn) [Compound 013, N-(5-((2S)-Bicyclo[2.2.1]hept-5-en-2-yl)-7-(dimethylamino)-5-methyl-10-(o-tolyl)dibenzo[b,e]silin-3(5H)-ylidene)-N-methylmethanaminium] | 60,800 | 666 nm | 649 nm | 160,000 M^−1 cm^−1 | 0.38 |  |  |  |  |  |  |  | 
11 | CN(C)c1ccc2c(c1)[Si@](C)(CCCCl)c1cc(N(C)C)ccc1[C@]21OC(=O)c2ccccc21 [Compound 037, (5s,10s)-5-(3-Chloropropyl)-3,7-bis(dimethylamino)-5-methyl-3′H,5H-spiro[dibenzo[b,e]siline-10,1′-isobenzofuran]-3′-one] |  | 665 nm | 650 nm |  | 0.40 | 200,000 M^−1 cm^−1 | ~200,000 M−1 cm−1 | 80,000 | ~80,000 M−1 cm−1 |  |  |  | 
12 | CN(C)c1ccc2c(c1)[Si@](C)(CCCN=[N+]=[N-])c1cc(N(C)C)ccc1[C@@]21OC(=O)c2ccccc21 [Compound 054, (5r,10r)-5-(3-Azidopropyl)-3,7-bis(dimethylamino)-5-methyl-3′H,5H-spiro[dibenzo[b,e]siline-10,1′-isobenzofuran]-3′-one] |  | 665 nm | 645 nm |  | 0.44 | 218,400 M^−1 cm^−1 |  |  |  |  |  |  | 
13 | Cc1ccccc1C1=c2cc3c(cc2[Si](C)(CCCCl)c2cc4c(cc21)CCCN4C)=[N+](C)CCC3 (stereo not shown) [Compound 019, 13-(3-Chloropropyl)-1,11,13-trimethyl-6-(o-tolyl)-2,3,4,8,9,10,11,13-octahydrosilino[3,2-g:5,6-g′]diquinolin-1-ium] | 41,250 | 694 nm | 677 nm | 125,000 M^−1 cm^−1 | 0.33 |  |  |  |  |  |  |  | 
14 | CN(C)c1ccc2c(c1)[Si@](C)(CCCSCC(=O)O)c1cc(N(C)C)ccc1[C@]21OC(=O)c2ccccc21 [Compound 063, 2-((3-((5s,10s)-3,7-Bis(dimethylamino)-5-methyl-3′-oxo-3′H,5H-spiro[dibenzo[b,e]siline-10,1′-isobenzofuran]-5-yl)propyl)thio)acetic acid] |  | 665 nm | 645 nm |  | 0.45 | 180,600 M^−1 cm^−1 |  |  |  |  |  |  | 
15 | C[Si@]1(CCCCl)c2cc(N3CCC3)ccc2[C@@]2(OC(=O)c3ccccc32)c2ccc(N3CCC3)cc21 [Compound 035, (5s,10s)-3,7-Di(azetidin-1-yl)-5-(3-chloropropyl)-5-methyl-3′H,5H-spiro[dibenzo[b,e]siline-10,1′-isobenzofuran]-3′-one] |  | 666 nm | 648 nm |  |  | 183,000 M^−1 cm^−1 |  |  |  |  |  |  | 
16 | C=C[Si]1(C)C2=CC(=[N+](C)C)C=CC2=C(c2ccccc2C)c2ccc(N(C)C)cc21 (stereo not shown) [Compound 003, N-(7-(Dimethylamino)-5-methyl-10-(o-tolyl)-5-vinyldibenzo[b,e]silin-3(5H)-ylidene)-N-methylmethanaminium] | 48,924 | 668 nm | 651 nm | 141,400 M^−1 cm^−1 | 0.35 |  |  |  |  |  |  |  | 
17 | Cc1ccccc1C1=C2C=CC(=[N+]3CCC3)C=C2[Si](C)(CCCCl)c2cc(N3CCC3)ccc21 (stereo not shown) [Compound 027, 1-(7-(Azetidin-1-yl)-5-(3-chloropropyl)-5-methyl-10-(o-tolyl)dibenzo[b,e]silin-3(5H)-ylidene)azetidin-1-ium] | 81,683 | 668 nm | 651 nm | 166,700 M^−1 cm^−1 | 0.49 |  |  |  |  | 0.61 | ~4,000 | 670 nm | 653 nm
18 | CN(C)c1ccc2c(c1)[Si@](C)(CCCCl)c1cc(N(C)C)ccc1[C@@]21OC(=O)c2ccccc21 [Compound 038, (5r,10r)-5-(3-Chloropropyl)-3,7-bis(dimethylamino)-5-methyl-3′H,5H-spiro[dibenzo[b,e]siline-10,1′-isobenzofuran]-3′-one] |  | 665 nm | 650 nm |  | 0.40 | 200,000 M^−1 cm^−1 | ~200,000 M−1 cm−1 | 80,000 | ~80,000 M−1 cm−1 |  |  |  | 
